Patent US20230233569A1 (Revolution Medicines, Inc., priority 2020, published 2023)
Read-outs that look alike come from different tables or passages of the source.

Experiments:
KRAS G12V = KRAS G12V (Homo sapiens, UniProt P01116+P62937, G12V); assay: Disruption of BRAF RBD interaction with Ras (FRET / MOA assay, with Cyclophilin A); format: biochemical
In short: (§1)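 Measured via TR-FRET after 3 h at 25 °C with compound (30 μM top, threefold serial steps, ten concentrations) plus K-Ras, Cyclophilin A and BRAF RBD, followed by 1.5 h with anti-His europium (10 nM) and anti-GST allophycocyanin (50 nM). Signal loss versus DMSO gave IC50.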

KRAS WT = KRAS WT (Homo sapiens, UniProt P01116+P62937); assay: as above; format: biochemical
Sequence of KRAS WT (P01116 1-169 isoform P01116-2 limits assumed): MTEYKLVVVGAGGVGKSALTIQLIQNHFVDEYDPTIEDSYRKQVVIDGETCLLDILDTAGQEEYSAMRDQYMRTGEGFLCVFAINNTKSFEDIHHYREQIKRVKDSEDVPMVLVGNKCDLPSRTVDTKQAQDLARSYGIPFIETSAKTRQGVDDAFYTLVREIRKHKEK
Sequence of KRAS WT (P62937 whole entry): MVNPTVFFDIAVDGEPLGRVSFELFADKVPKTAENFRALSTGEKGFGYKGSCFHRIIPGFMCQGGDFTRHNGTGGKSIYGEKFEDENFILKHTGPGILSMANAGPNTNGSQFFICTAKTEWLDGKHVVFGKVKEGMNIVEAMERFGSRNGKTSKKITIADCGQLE
In short: as §1

KRAS G13C = KRAS G13C (Homo sapiens, UniProt P01116+P62937, G13C); assay: as above; format: biochemical
Sequence of KRAS G13C (P01116 1-169 isoform P01116-2 G13C): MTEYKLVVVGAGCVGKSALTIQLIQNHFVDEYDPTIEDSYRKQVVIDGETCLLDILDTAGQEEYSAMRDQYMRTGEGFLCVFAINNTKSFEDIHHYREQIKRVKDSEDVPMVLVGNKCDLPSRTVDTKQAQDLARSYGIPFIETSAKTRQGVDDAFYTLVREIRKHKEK
Sequence of KRAS G13C (P62937 whole entry): as the sequence (P62937 whole entry) above
In short: as §1

KRAS G12S = KRAS G12S (Homo sapiens, UniProt P01116+P62937, G12S); assay: as above; format: biochemical
Sequence of KRAS G12S (P01116 1-169 isoform P01116-2 G12S limits assumed): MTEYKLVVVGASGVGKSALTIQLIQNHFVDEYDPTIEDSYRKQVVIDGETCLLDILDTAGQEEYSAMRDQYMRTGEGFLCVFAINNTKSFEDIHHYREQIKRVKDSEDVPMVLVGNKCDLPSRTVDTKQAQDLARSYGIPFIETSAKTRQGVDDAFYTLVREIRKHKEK
Sequence of KRAS G12S (P62937 whole entry): as the sequence (P62937 whole entry) above
In short: as §1

KRAS G13D = KRAS G13D (Homo sapiens, UniProt P01116+P62937, G13D); assay: as above; format: biochemical
Sequence of KRAS G13D (P01116 1-169 isoform P01116-2 G13D limits assumed): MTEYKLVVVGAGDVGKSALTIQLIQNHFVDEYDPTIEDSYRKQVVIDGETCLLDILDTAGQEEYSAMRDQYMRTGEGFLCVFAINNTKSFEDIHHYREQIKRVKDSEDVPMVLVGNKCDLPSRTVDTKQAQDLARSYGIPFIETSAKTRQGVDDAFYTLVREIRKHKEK
Sequence of KRAS G13D (P62937 whole entry): as the sequence (P62937 whole entry) above
In short: as §1

KRAS G12C = KRAS G12C (Homo sapiens, UniProt P01116+P62937, G12C); assay: as above; format: biochemical
Sequence of KRAS G12C (P01116 1-169 isoform P01116-2 G12C): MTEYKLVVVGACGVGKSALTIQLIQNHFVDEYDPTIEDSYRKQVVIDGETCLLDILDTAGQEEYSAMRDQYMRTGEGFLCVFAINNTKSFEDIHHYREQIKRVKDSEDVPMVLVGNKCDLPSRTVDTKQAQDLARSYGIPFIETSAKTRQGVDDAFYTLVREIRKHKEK
Sequence of KRAS G12C (P62937 whole entry): as the sequence (P62937 whole entry) above
In short: as §1

KRAS G12D = KRAS G12D (Homo sapiens, UniProt P01116+P62937, G12D); assay: as above; format: biochemical
Sequence of KRAS G12D (P01116 1-169 isoform P01116-2 G12D limits assumed): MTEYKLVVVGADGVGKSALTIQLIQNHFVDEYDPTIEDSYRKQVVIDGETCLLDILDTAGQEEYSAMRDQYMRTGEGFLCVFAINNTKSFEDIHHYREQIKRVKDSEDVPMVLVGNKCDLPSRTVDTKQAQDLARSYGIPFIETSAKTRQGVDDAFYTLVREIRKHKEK
Sequence of KRAS G12D (P62937 whole entry): as the sequence (P62937 whole entry) above
In short: as §1

NRAS G12C = NRAS G12C (Homo sapiens, UniProt P01111+P62937, G12C); assay: as above; format: biochemical
Sequence of NRAS G12C (P01111 whole entry G12C): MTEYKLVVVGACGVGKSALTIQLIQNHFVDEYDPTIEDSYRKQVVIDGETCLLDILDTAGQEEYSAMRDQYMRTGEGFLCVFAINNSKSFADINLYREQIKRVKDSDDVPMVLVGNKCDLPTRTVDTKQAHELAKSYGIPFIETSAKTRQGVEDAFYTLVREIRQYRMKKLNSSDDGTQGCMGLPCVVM
Sequence of NRAS G12C (P62937 whole entry): as the sequence (P62937 whole entry) above

NCI-H358 (K-Ras G12C) = assay: CellTiter-Glo cell viability assay, 5-day treatment; format: cell-based; details: Homo sapiens, NCI-H358, 120 h, 5-day treatment; read-out: H358 Cell Viability assay data (K-Ras G12C, IC50)
In short: (§2)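 Viability is read as luminescence on day 5 after direct compound addition to plated cells, following about 30 minutes' room-temperature equilibration. Each signal is scaled to mean DMSO as 100%.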

Capan-1 (K-Ras G12V) = assay: as above; format: cell-based; details: Homo sapiens, CAPAN-1, 120 h, 5-day treatment; read-out: Capan-1 Cell Viability assay data (K-Ras G12V, IC50)
In short: as §2

[1] = KRAS G12V, read-out: KRAS G12V FRET data IC50
[2] = KRAS WT, read-out: KRAS WT FRET data IC50
[3] = read-out: KRAS G13C FRET data, IC50
[4] = read-out: KRAS G12S FRET data, IC50
[5] = KRAS G13D, read-out: KRAS G13D FRET data IC50
[6] = read-out: KRAS G12C FRET data, IC50
[7] = read-out: KRAS G12D FRET data, IC50
[8] = NRAS G12C, read-out: NRAS G12C FRET data IC50

Sequence of KRAS G12V (P01116 1-169 isoform P01116-2 G12V limits assumed): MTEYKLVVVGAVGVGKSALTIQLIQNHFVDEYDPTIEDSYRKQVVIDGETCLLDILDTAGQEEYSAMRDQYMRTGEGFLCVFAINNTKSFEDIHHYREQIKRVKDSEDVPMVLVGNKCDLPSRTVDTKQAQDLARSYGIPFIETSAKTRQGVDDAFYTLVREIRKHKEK
Sequence of KRAS G12V (P62937 whole entry): as the sequence (P62937 whole entry) above

| SMILES | IC50 (KRAS G12V; [1]) [nM] | IC50 (KRAS WT; [2]) [nM] | IC50 (KRAS G13C; [3]) [nM] | IC50 (KRAS G12S; [4]) [nM] | IC50 (KRAS G13D; [5]) [nM] | IC50 (KRAS G12C; [6]) [nM] | IC50 (KRAS G12D; [7]) [nM] | IC50 (NRAS G12C; [8]) [nM] | IC50 (NCI-H358 (K-Ras G12C)) [nM] | IC50 (Capan-1 (K-Ras G12V)) [nM] | IC50 (KRAS G12V; KRAS G12V FRET data IC50, KRAS G12V) [nM] | IC50 (KRAS WT; KRAS WT FRET data IC50, KRAS WT) [nM] | IC50 (KRAS G13C; KRAS G13C FRET data, IC50) [nM] | IC50 (KRAS G12S; KRAS G12S FRET data, IC50) [nM] | IC50 (KRAS G13D; KRAS G13D FRET data IC50, KRAS G13D) [nM] | IC50 (KRAS G12C; KRAS G12C FRET data, IC50) [nM] | IC50 (KRAS G12D; KRAS G12D FRET data, IC50) [nM] | IC50 (NRAS G12C; NRAS G12C FRET data IC50, NRAS G12C) [nM] |
| --- | --- | --- | --- | --- | --- | --- | --- | --- | --- | --- | --- | --- | --- | --- | --- | --- | --- | --- |
| CCn1c(-c2cccnc2[C@H](C)OC)c2c3cc(ccc31)-c1csc(n1)C[C@H](NC(=O)[C@@H](OC(=O)N1CC(N(C)C)C1)C(C)C)C(=O)N1CCC[C@H](N1)C(=O)OCC(C)(C)C2 [Example A339] | 1000 to 10000 | 100 to 1000 | 1000 to 10000 | 1000 to 10000 | 1000 to 10000 | 100 to 1000 | 1000 to 10000 | 100 to 1000 | 100 to 1000 | 1000 to 10000 |  |  |  |  |  |  |  |  |
| CCn1c(-c2cccnc2[C@H](C)OC)c2c3cc(ccc31)-c1cc(O)cc(c1)C[C@H](NC(=O)[C@H](C(C)C)N(C)C(=O)[C@@H]1CC1(F)F)C(=O)N1CCC[C@H](N1)C(=O)OCC(C)(C)C2 [Example A167] |  |  |  |  |  |  |  |  | 100 to 1000 | 100 to 1000 | 100 to 1000 | 100 to 1000 | 100 to 1000 | 100 to 1000 | 100 to 1000 | 100 to 1000 | 100 to 1000 | 100 to 1000 |
| CCn1c(-c2cccnc2[C@H](C)OC)c2c3cc(ccc31)-c1cc(O)cc(c1)C[C@H](NC(=O)[C@H](C(C)C)N(C)C(=O)C1(N)CC1)C(=O)N1CCC[C@H](N1)C(=O)OCC(C)(C)C2 [Example A168] | 100 to 1000 | 10 to 100 | 10 to 100 | 100 to 1000 | 100 to 1000 | 10 to 100 | 100 to 1000 | 10 to 100 | 100 to 1000 | 100 to 1000 |  |  |  |  |  |  |  |  |

Further lines, with some results ahead:

| IC50 (KRAS G12V; [1]) [nM] | IC50 (KRAS WT; [2]) [nM] | IC50 (KRAS G13C; [3]) [nM] | IC50 (KRAS G12S; [4]) [nM] | IC50 (KRAS G13D; [5]) [nM] | IC50 (KRAS G12C; [6]) [nM] | IC50 (KRAS G12D; [7]) [nM] | IC50 (NRAS G12C; [8]) [nM] | IC50 (NCI-H358 (K-Ras G12C)) [nM] | SMILES | IC50 (Capan-1 (K-Ras G12V)) [nM] | IC50 (KRAS G12V; KRAS G12V FRET data IC50, KRAS G12V) [nM] | IC50 (KRAS WT; KRAS WT FRET data IC50, KRAS WT) [nM] | IC50 (KRAS G13C; KRAS G13C FRET data, IC50) [nM] | IC50 (KRAS G12S; KRAS G12S FRET data, IC50) [nM] | IC50 (KRAS G13D; KRAS G13D FRET data IC50, KRAS G13D) [nM] | IC50 (KRAS G12C; KRAS G12C FRET data, IC50) [nM] | IC50 (KRAS G12D; KRAS G12D FRET data, IC50) [nM] | IC50 (NRAS G12C; NRAS G12C FRET data IC50, NRAS G12C) [nM] |
| --- | --- | --- | --- | --- | --- | --- | --- | --- | --- | --- | --- | --- | --- | --- | --- | --- | --- | --- |
| 100 to 1000 | 100 to 1000 | 100 to 1000 | 100 to 1000 | 1000 to 10000 | 100 to 1000 | 1000 to 10000 | 100 to 1000 | 100 to 1000 | CCn1c(-c2cnccc2COC)c2c3cc(ccc31)-c1cc(O)cc(c1)C[C@H](NC(=O)[C@H](C(C)C)N(C)C(=O)N1CC(OC)C1)C(=O)N1CCC[C@H](N1)C(=O)OCC(C)(C)C2 [Example A30] | 100 to 1000 |  |  |  |  |  |  |  |  |
| 10 to 100 | 10 to 100 | 10 to 100 | 10 to 100 | 10 to 100 | 10 to 100 | 10 to 100 | 10 to 100 | 100 to 1000 | CCn1c(-c2cccnc2[C@H](C)OC)c2c3cc(ccc31)-c1cc(O)cc(c1)C[C@H](NC(=O)[C@H](C(C)C)N(C)C(=O)[C@H]1CCN(C(=O)[C@@H]3CCCN3C)C1)C(=O)N1CCC[C@H](N1)C(=O)OCC(C)(C)C2 [Example A385] | 100 to 1000 |  |  |  |  |  |  |  |  |
| 100 to 1000 | 1000 to 10000 | 1000 to 10000 | 100 to 1000 | 1000 to 10000 | 100 to 1000 | > 10000 | 100 to 1000 | 100 to 1000 | CCn1c(-c2cnccc2COC)c2c3cc(ccc31)-c1cc(O)cc(c1)C[C@H](NC(=O)[C@H](C(C)C)N(C)C(=O)[C@H]1CCN(C(=O)C(C)C)C1)C(=O)N1CCC[C@H](N1)C(=O)OCC(C)(C)C2 [Example A29] | 1000 to 10000 |  |  |  |  |  |  |  |  |
| 1000 to 10000 | 100 to 1000 | 10 to 100 | 100 to 1000 | 10 to 100 | 100 to 1000 | 10 to 100 | 100 to 1000 | 1000 to 10000 | CCn1c(-c2cccnc2[C@H](C)OC)c2c3cc(ccc31)-c1cc(O)cc(c1)C[C@H](NC(=O)[C@H](C(C)C)N(C)C(=O)[C@H]1CCCN[C@@H]1C)C(=O)N1CCC[C@H](N1)C(=O)OCC(C)(C)C2 [Example A134] | > 10000 |  |  |  |  |  |  |  |  |
| 100 to 1000 | 100 to 1000 | 100 to 1000 | 100 to 1000 | 100 to 1000 | 10 to 100 | 100 to 1000 | 10 to 100 | 10 to 100 | CCn1c(-c2cccnc2[C@H](C)OC)c2c3cc(ccc31)-c1csc(n1)C[C@H](NC(=O)[C@H](C(C)C)N(C)C(=O)N(C)C1CC1)C(=O)N1CCC[C@H](N1)C(=O)OCC(C)(C)C2 [Example A353] | 10 to 100 |  |  |  |  |  |  |  |  |
